From patent US7202085B2, “Control of gene expression in eukaryotic cells” (Calgene LLC, priority 1999, dated 2007)
“And” between values parts separate entries of the source, which are not always exact repeats. Identical values can stand only once.

Test system: VP16-TraR
Test: Transient GUS reporter assay in carrot protoplasts with VP16-TraR effector and tra box reporter
Assay type: cell-based, Agrobacterium tumefaciens
Settings: Table 8: TraA8(4X) +TraR
Source text: Carrot protoplasts were transfected with the TraA8 (4×)-GUS reporter construct with the 35S-VP16-TraR activator gene and tested for GUS induction by application of wild type AHL and the various AHL analogs described in Example 8.

CCCCCCC(C(C)=O)C(=O)N[C@@H](CCO)C(=O)O (stereo partly drawn) [compound 26, N-(α-Hexyl-b-ketobutanoyl)-(S)-homoserine]
1, 2, 3 (replicate GUS activities at the lower concentration) (5 μM): 382.0 and 407.6 and 373.1
4, 5, 6 (replicate GUS activities at the higher concentration) (12.5 μM): 2145.8 and 1764.6 and 1527.0
1, 2, 3 (replicate GUS activities at the lower concentration) (25 μM): 1658.7 and 1300.7 and 1586.6
4, 5, 6 (replicate GUS activities at the higher concentration) (75 μM): 2585.3 and 3238.5 and 2815.8
